{"source": "patent US20100240537A1", "about": "“Substituted 6-(alkylbenzylamino)purine derivatives for use as cytokinin receptor antagonists and preparations containing these derivatives” (priority 2007, published 2010)", "assay_type_in_all_cases": "cell-based", "key": {"CRE1/AHK4": {"target": "T1, CRE1/AHK4 (Arabidopsis thaliana, UniProt Q9C5U0)", "T1 construct": "expressed in transfected cells; host or cells: Escherichia coli KMI001, plasmid pIN-III-AHK4", "T1 sequence (Q9C5U0 whole entry)": "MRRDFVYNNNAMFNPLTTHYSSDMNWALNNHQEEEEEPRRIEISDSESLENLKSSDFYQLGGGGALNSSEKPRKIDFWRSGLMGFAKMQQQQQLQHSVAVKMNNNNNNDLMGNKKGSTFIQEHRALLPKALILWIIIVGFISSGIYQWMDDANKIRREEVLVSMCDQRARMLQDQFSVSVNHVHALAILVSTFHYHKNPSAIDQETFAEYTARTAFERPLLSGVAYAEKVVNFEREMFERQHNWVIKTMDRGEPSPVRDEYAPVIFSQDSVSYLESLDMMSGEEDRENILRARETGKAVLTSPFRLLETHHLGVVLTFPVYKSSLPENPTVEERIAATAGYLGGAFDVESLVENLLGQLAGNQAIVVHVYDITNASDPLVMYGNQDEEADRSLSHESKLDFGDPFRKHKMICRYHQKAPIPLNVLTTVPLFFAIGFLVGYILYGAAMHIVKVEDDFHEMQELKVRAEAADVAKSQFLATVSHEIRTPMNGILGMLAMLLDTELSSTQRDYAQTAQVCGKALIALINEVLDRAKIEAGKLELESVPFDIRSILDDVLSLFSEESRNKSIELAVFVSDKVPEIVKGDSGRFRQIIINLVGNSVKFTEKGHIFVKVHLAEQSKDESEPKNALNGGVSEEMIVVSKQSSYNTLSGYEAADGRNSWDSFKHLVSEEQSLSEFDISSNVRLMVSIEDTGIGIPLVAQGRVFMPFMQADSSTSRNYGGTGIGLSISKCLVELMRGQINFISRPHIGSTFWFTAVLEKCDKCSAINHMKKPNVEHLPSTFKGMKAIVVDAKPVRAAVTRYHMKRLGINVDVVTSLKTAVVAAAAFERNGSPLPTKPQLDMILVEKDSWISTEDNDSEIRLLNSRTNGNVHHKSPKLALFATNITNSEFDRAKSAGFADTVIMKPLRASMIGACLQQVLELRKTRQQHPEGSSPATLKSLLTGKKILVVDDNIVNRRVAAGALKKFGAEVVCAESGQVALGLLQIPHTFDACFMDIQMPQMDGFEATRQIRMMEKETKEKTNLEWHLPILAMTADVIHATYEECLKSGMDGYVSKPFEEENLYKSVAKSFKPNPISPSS", "assay": "Activation of cytokinin receptor CRE1/AHK4 in E. coli KMI001 (β-galactosidase reporter)", "conditions": "for EC50 CRE1/AHK4 (activation of cytokinin receptor): E. coli KMI001 pIN-III-AHK4, 17 h incubation, n.i. means without interaction", "method": "(§1) Escherichia coli strains KMI001 harbouring the plasmid pIN-III-AHK4 or pSTV28-AHK3 were grown overnight at 25° C. in M9 media enriched with 0.1% casamino acids to OD600˜1. The preculture was diluted 1:600 in 1 ml M9 medium containing 0.1% casamino acids and 1 μl stock solution of either the tested compound (10^−7 M−5×10^−5 M) or solvent control (DMSO, ethanol, methanol) were added. The cultures were further grown at 25° C. in microtiter plate, 200 μl per well. […] The cultures were centrifuged and 50 μl aliquots of the supernatant were transferred to microtiter plate containing 2 μl 50 mM 4-methyl umbelliferyl galactoside which was subsequently incubated for 1 h at 37° C. The reaction was stopped by adding 100 μl 0.2 M Na2CO3. Fluorescence was measured using a Fluoroscan Ascent (Labsystems, Finland) at the excitation and emission wavelengths of 365 and 460 nm, respectively. The OD600 of remaining culture was determined and β-galactosidase activity was calculated as nmol 4-methylumbelliferone×OD600^−1×h^−1.\n(§2) The EC50 value, the compound concentration activating the receptor to 50%, was calculated from the obtained dose response curves. The compound functioning as cytokinin antagonists should not activate cytokinin signalling pathway. The values shown in Table 2 are means of three replicates and the entire test was repeated at least twice."}, "AHK3": {"target": "T2, AHK3 (Arabidopsis thaliana, UniProt Q9C5U1)", "T2 construct": "expressed in transfected cells; host or cells: Escherichia coli KMI001, plasmid pSTV28-AHK3", "T2 sequence (Q9C5U1 1-1036)": "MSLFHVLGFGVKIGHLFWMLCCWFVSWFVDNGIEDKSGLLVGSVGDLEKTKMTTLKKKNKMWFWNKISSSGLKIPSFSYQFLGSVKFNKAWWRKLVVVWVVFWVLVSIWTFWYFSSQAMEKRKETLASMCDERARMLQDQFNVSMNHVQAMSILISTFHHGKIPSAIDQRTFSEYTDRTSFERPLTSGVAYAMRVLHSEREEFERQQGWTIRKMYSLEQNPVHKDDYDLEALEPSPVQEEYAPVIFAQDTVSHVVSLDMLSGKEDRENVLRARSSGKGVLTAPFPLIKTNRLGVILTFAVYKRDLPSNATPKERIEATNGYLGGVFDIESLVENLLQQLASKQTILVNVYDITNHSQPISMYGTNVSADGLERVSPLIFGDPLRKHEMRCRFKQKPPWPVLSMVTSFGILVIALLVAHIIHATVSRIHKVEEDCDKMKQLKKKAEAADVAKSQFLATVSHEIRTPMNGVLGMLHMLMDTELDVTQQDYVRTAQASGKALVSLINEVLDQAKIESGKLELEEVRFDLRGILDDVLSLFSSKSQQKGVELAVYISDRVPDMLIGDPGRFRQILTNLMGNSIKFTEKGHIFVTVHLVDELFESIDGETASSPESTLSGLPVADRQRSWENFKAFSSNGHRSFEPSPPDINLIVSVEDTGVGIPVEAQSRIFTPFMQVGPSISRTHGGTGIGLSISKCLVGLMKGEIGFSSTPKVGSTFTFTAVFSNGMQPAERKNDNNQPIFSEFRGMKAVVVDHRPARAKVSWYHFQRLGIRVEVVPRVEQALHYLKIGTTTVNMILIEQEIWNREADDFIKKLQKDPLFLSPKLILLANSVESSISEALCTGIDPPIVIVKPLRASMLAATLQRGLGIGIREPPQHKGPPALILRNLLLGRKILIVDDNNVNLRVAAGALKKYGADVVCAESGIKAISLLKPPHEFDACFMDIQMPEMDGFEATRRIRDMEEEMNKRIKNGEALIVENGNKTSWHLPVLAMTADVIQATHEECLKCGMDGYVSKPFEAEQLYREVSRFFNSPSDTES", "assay": "Activation of cytokinin receptor AHK3 in E. coli KMI001 (β-galactosidase reporter)", "method": "as §1, §2"}, "[1]": {"tested_on": "Human diploid fibroblasts SNF25", "assay": "MTT viability assay on human diploid fibroblasts", "conditions": "Homo sapiens, Fibroblast; SNF25 passage 19, 72 hours; read-out: IC50 (reduction in mitochondrial activity, MTT)", "method": "MTT is a standard colorimetric assay for measurement of proliferation and survival of the cells. Yellow MTT is reduced into violet formazan in metabolically active cells. The amount of formazan is measured by spectrometry. Human diploid fibroblasts SNF25 (passage 19) were seeded in 96-well plate (5000 cells per well). After 6 hours, the cultivation medium (DMEM containing 5 g/l glucose, 2 mM glutamin, 100 U/ml penicillin, 100 μg/ml streptomycin and 10% fetal calf serum) was removed and fresh medium containing a test compound in concentration range of 0-100 μM was added. The concentration was adjusted in cases of compounds with limited solubility. Each concentration was tested in 5 replicates. MTT was added to the cells after 72 hours into final concentration of 0.5 mg/ml. Incubation time was 3 hours. Resulting MTT was disolved in DMSO and absorbance was measured. The cytotoxic effect was estimated as IC=(Awells with compounds/Acontrol wells)×100%."}, "[2]": {"conditions": "E. coli KMI001 pSTV28-AHK3, 28 h incubation, n.i. means without interaction, read-out: EC50 AHK3 (activation of cytokinin receptor)"}}, "note": "Like-named read-outs stand apart in the source and are kept apart here."}
{"smiles": "c1ccc(CNc2ncnc3nc[nH]c23)cc1", "note": "[6-(benzylamino)purine]", "values": [{"measurement": "EC50", "setting": "CRE1/AHK4", "result": 19.7, "unit": "µM"}, {"measurement": "EC50", "setting": "AHK3", "result": 18.2, "unit": "µM"}, {"measurement": "IC50", "setting": "[1]", "result": "> 100", "unit": "µM"}]}
{"smiles": "Cc1cccc(CNc2ncnc3nc[nH]c23)c1O", "note": "[Compound 8, 6-(2-hydroxy-3-methylbenzylamino)purine]", "values": [{"measurement": "EC50 CRE1/AHK4 (activation of cytokinin receptor)", "setting": "CRE1/AHK4", "result": "n.i."}, {"measurement": "EC50", "setting": "AHK3; [2]", "result": "> 100", "unit": "µM"}, {"measurement": "IC50", "setting": "[1]", "result": "> 50", "unit": "µM"}]}
{"smiles": "Cc1ccc(O)c(CNc2ncnc3nc[nH]c23)c1", "note": "[Compound 10, 6-(2-hydroxy-5-methylbenzylamino)purine]", "values": [{"measurement": "EC50 CRE1/AHK4 (activation of cytokinin receptor)", "setting": "CRE1/AHK4", "result": "n.i."}, {"measurement": "EC50", "setting": "AHK3; [2]", "result": "> 100", "unit": "µM"}, {"measurement": "IC50", "setting": "[1]", "result": "> 100", "unit": "µM"}]}
